Earlier results in patent publication US20230201385A1, “[…] OF BACTERIA AND VIRUSES” (MULTI-MAGNETICS INCORPORATED, priority 2020, published 2023).

Key:
[1] = test system: Enterobacterales infections; conditions: murine models
[2] = dog, i.v.

| Compound | Accumulation in cells (Enterobacterales) | Detection of infections by PET [1] | Duration of acceptable bone visualization [2] | Mean standard uptake value (SUV) in bone ([2]; averaged over days 8-16) | Mean standard uptake value (SUV) in kidneys ([2]; averaged over days 8-16) | Mean standard uptake value (SUV) in liver ([2]; averaged over days 8-16) | Mean standard uptake value (SUV) in lungs ([2]; averaged over days 8-16) |
| --- | --- | --- | --- | --- | --- | --- | --- |
| OC[C@@H](O)[C@@H](O)[C@H](O)[C@@H]([18F])CO [^18F-FDS, 2-Deoxy-2[^18F]fluoro-D-sorbitol] | accumulate in Enterobacterales but not in healthy mammalian or cancer cells | specifically detect Enterobacterales infections | – | – | – | – | – |
| O=P([O-])([O-])O.O=P([O-])([O-])O.[89Zr+4] [^89Zr-phosphate] | – | – | 20 days | ~10 | ~3 | ~3 | ~3 |
